# Source: PubChem BioAssay (NCI)
#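 Step 1: Grow cells in 96-well plates. Step 2: Expose to compound for 48 hours at 5 concentrations. Step 3: Interpolate endpoints linearly; if unreached, use highest concentration. Definition used: TGI = concentration required for complete inhibition of growth.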
# Legend:
# Experiment in all cases: NCI anticancer screen, dose series, 48 h
# UACC-62 melanoma = test system: UACC-62 melanoma
# MALME-3M melanoma = test system: MALME-3M melanoma
# MDA-N = test system: MDA-N
# SW-620 colon = test system: SW-620 colon
# SF-268 CNS = test system: SF-268 CNS
# PC-3 prostate = test system: PC-3 prostate
# OVCAR-4 ovarian = test system: OVCAR-4 ovarian
# TK-10 renal = test system: TK-10 renal
# EKVX NSCLC = test system: EKVX NSCLC
# HL-60(TB) leukemia = test system: HL-60(TB) leukemia
# M14 melanoma = test system: M14 melanoma
# HCC-2998 colon = test system: HCC-2998 colon
# MOLT-4 leukemia = test system: MOLT-4 leukemia
# NCI-H226 lung = test system: NCI-H226 lung
# OVCAR-5 ovarian = test system: OVCAR-5 ovarian
# K-562 leukemia = test system: K-562 leukemia
# HOP-62 NSCLC = test system: HOP-62 NSCLC
# SF-295 CNS = test system: SF-295 CNS
# RPMI-8226 leukemia = test system: RPMI-8226 leukemia
Structure (SMILES),TGI (UACC-62 melanoma) [µM],TGI (MALME-3M melanoma) [µM],TGI (MDA-N) [µM],TGI (SW-620 colon) [µM],TGI (SF-268 CNS) [µM],TGI (PC-3 prostate) [µM],TGI (OVCAR-4 ovarian) [µM],TGI (TK-10 renal) [µM],TGI (EKVX NSCLC) [µM],TGI (HL-60(TB) leukemia) [µM],TGI (M14 melanoma) [µM],TGI (HCC-2998 colon) [µM],TGI (MOLT-4 leukemia) [µM],TGI (NCI-H226 lung) [µM],TGI (OVCAR-5 ovarian) [µM],TGI (K-562 leukemia) [µM],TGI (HOP-62 NSCLC) [µM],TGI (SF-295 CNS) [µM],TGI (RPMI-8226 leukemia) [µM]
Cc1cccc2c(=O)c3c(O)cc4c(c3n(C)c12)C=CC(C)(C)O4,> 100,> 100,> 100,> 100,> 100,> 100,> 100,> 100,> 100,> 100,> 100,> 100,> 100,> 100,> 100,48,> 100,> 100,66.5
O=C(N1CCN(c2ccccc2)CC1)N(C(=O)C1(c2ccc(Cl)cc2)CCCC1)S(=O)(=O)c1ccccc1,51.7,72.3,51.2,> 100,> 100,76.1,64.2,> 100,58.2,68.1,47.3,58.5,59.1,99.3,65.7,> 100,88.6,70.6,> 100
Cc1cn(C2CC(O)C(Cn3nncc3Cn3ccc(=O)[nH]c3=O)O2)c(=O)[nH]c1=O (stereo not given),> 100,> 100,> 100,> 100,> 100,> 100,> 100,> 100,> 100,> 100,> 100,> 100,> 100,> 100,> 100,–,> 100,> 100,> 100
COc1cc(N(CCC#N)CCC#N)ccc1/C(N=Nc1cccc(C)c1)=N\NC(=O)c1ccc(C)cc1,> 100,> 100,> 100,> 100,> 100,> 100,> 100,> 100,> 100,> 100,> 100,> 100,> 100,> 100,> 100,> 100,> 100,> 100,> 100
CCN(CC)c1ccc2cc(-c3csc(-c4ccc(N(C)C)cc4)n3)c(=O)oc2c1,> 100,> 100,> 100,> 100,> 100,> 100,> 100,> 100,> 100,> 100,> 100,> 100,> 100,> 100,> 100,> 100,> 100,> 100,> 100
COC(=O)c1c(OC(C)=O)ccc2c1c1cc3ccccc3c(OC(C)=O)c1n2C,> 100,56.2,> 100,–,> 100,> 100,> 100,92.5,> 100,> 100,> 100,91.7,> 100,> 100,> 100,> 100,> 100,> 100,> 100
NNC(=O)CSc1nnc(CCCCCCCCc2nnc(SCC(=O)NN)o2)o1,> 100,> 100,> 100,> 100,> 100,> 100,> 100,> 100,> 100,> 100,> 100,> 100,> 100,> 100,> 100,> 100,> 100,> 100,> 100
N#Cc1c(Nc2ccccc2)[n+]([O-])c2ccc(Cl)cc2[n+]1[O-],31.5,26.9,> 100,> 100,> 48.6,> 100,4.17,49.2,> 32.9,12.1,34.1,15.2,> 100,> 45.2,> 100,> 22.6,> 69.9,> 74.3,> 24.7
Cc1ccc2nnc(NS(=O)(=O)c3cc(C)c(Cl)cc3S)n2n1,> 100,> 100,> 100,> 100,> 100,> 100,> 100,> 100,> 100,> 100,> 100,> 100,> 100,> 100,> 100,> 100,> 100,–,> 100
COc1cc(C2S/C(=C/c3ccccc3)C(=O)N2c2ccccn2)cc(OC)c1OC (stereo not given),29.8,27.5,34.4,64.3,36.2,> 81.7,63.2,> 100,76.1,> 100,31.8,32.8,> 100,> 96.4,41.2,> 100,48.8,> 83.3,73.3
Nc1c(O)c(C(=O)O)cc2ccccc12,31.6,29.6,32.3,32.3,> 100,> 100,48.9,> 100,> 100,> 100,35.2,> 100,83.8,99.8,41.2,85.9,> 100,> 100,95.7
COc1cc2c3c4c1OCc1c5c(cc(c1-4)CC3[N+](C)(C)CC2)OCO5 (stereo not given),> 100,> 100,> 100,> 100,16.9,> 100,> 100,> 100,> 100,> 100,> 100,> 100,> 100,> 100,> 100,> 100,> 100,> 43,> 100
CCOC(=O)/C=C1\C[C@H](NC(=O)OCc2ccccc2)C(=O)N1CC(=O)OCC,> 100,> 100,> 100,> 100,> 100,> 100,> 100,> 100,> 100,> 100,> 100,> 100,> 100,> 100,> 100,> 100,> 100,> 100,> 100
COc1cc(C2SC(N)=Nc3c2c(C)nn3C(=O)c2ccc(Cl)cc2)ccc1O (stereo not given),> 10,> 10,0.406,> 10,> 10,> 10,> 10,> 10,> 10,> 10,> 10,> 10,> 10,> 10,> 10,> 10,> 10,> 10,> 10
COc1ccccc1NC1=NCC(C)S1 (stereo not given),> 100,> 100,> 100,> 100,> 100,> 100,–,> 100,> 100,> 100,> 100,> 100,> 100,> 100,> 100,> 100,> 100,> 100,> 100
Cc1ccc(C)c(C(=N)c2ccccc2Cc2ccccc2)c1,33.4,28,69.4,> 100,46.2,> 100,85.8,> 100,56.8,43.6,> 100,31.7,38.2,33.9,98.3,58.7,61.5,56,35.4
CC(=O)NC1=CC(=O)C=C(Cl)C1=O,> 100,66,31,37,> 100,> 100,37.7,> 100,> 100,45.7,> 100,> 100,50.9,> 100,> 100,93.6,> 100,> 100,52.1
Cc1cc(C)nc(NS(=O)(=O)c2ccc(NC(=O)c3ccc4nc5ccccc5c(Nc5ccc(S(=O)(=O)Nc6nc(C)cc(C)n6)cc5)c4c3)cc2)n1,> 100,> 100,> 100,> 100,> 100,> 100,> 100,> 100,> 100,79.1,> 100,> 100,78.1,> 100,> 100,> 100,> 100,> 100,> 100
COc1ccc(/C=C2\CC3C4CC=C5C[C@@H](O)CC[C@]5(C)C4CC[C@]3(C)C2=O)cc1OC (stereo not given in full),> 100,> 100,> 100,> 100,> 100,> 100,> 100,> 100,> 100,> 100,> 100,> 100,83.4,> 100,> 100,> 100,> 100,50.4,36.2
CC(=O)Nc1ccc2c3c(cc(O)c2c1)N(C(=O)CCCCCC(=O)Nc1ccc2c4c(cc(O)c2c1)N(C(=O)OC(C)(C)C)CC4CCl)CC3CCl (stereo not given),3.87,8.98,3.56,> 100,6.87,> 50.2,> 63.6,> 70.6,> 100,> 36.1,20.5,3.69,> 32.6,9.56,35.5,> 100,12,> 45.9,> 34.6
Cc1cccc(/C=C2\CCCCCC2=O)c1,> 100,> 100,> 100,> 100,> 100,> 100,> 100,> 100,> 100,> 100,> 100,> 100,> 100,> 100,> 100,> 100,> 100,> 100,> 100
O=c1c2cc([N+](=O)[O-])cnc2sn1-c1ccc(Br)cc1,> 100,57,> 100,> 100,75.1,> 100,82,> 100,> 100,80.7,> 100,> 100,90.3,> 100,> 100,–,> 100,47.1,> 100
CC1(C)N=C(N)N=C(N)N1CCCCc1ccccc1,> 100,83.4,> 100,> 100,> 100,> 77,> 100,> 100,> 100,> 31.1,> 100,> 51,> 91.6,> 83,> 100,> 100,> 100,> 62.6,> 93.9
CCOC(=O)c1c[nH]c2cc3c(cc2c1=O)CCS3,> 100,> 100,> 100,> 100,> 100,> 100,> 100,> 100,> 100,> 100,> 100,> 100,> 100,> 100,> 100,> 100,> 100,> 100,> 100
O=c1ccc2nc3ccc(O)cc3oc-2c1,5.55,8.76,3.43,> 88.9,> 100,> 100,> 100,> 100,> 100,25.4,19.5,> 100,> 100,> 100,> 100,34.7,> 100,> 100,30.8
